From patent publication US10689377B2 (Mirati Therapeutics, Inc., priority 2017, dated 2020)

Tests used:
[1] = In vitro stability in human whole blood; type: in vitro ADME; conditions: male, whole blood diluted to 50% with PBS, pH 7.4, human whole blood diluted to 50% with PBS, 5 μM, 37° C., 240-minute incubation, read-out: Compound Half-life
Source text: Materials: The following reagents were used as received: acetonitrile (HPLC grade, Burdick & Jackson, Madison, Wis.), phosphate buffered saline (PBS), pH 7.4 (Sigma-Aldrich, Co., St. Louis, Mo.), water (HPLC grade, JT Baker, Phillipsburg, N.J.), DMSO (EM Science, Merck KGaA, Darmstadt, Germany) and isopropanol (IPA, reagent grade, EMD Chemicals, Gibbstown, N.J.). Propantheline and esmolol (Sigma-Aldrich) were used as the positive control compounds in the assay. Diazepam (Sigma-Aldrich) was used as an internal standard for quantitation. Human whole blood was obtained from BioIVT (Westbury, N.Y.) […]. All other reagents and solvents were of the highest analytical grade supplied by Sigma (St. Louis, Mo.) and were used as received.
Blood Incubations: The in vitro stability of representative KRas G12C inhibitor compounds of the present invention in the presence whole blood was conducted in the following manner. Esmolol or propantheline, which are known to undergo ester hydrolysis by esterases in blood and plasma, were used as the positive controls in the assays. A 10 mM stock solution of propantheline, esmolol, or a compound of the present invention in DMSO was diluted to 500 μM with DMSO. Aliquots of whole blood (600 μL), in triplicate, were placed in the appropriate wells of a polypropylene 96-deep well plate (Axygen Scientific, Union City, Calif.). The blood was diluted to 50% using PBS, pH 7.4 (600 μL). The diluted blood was pre-incubated for 15 minutes at 37° C. Each well was dosed with 12 μL of the 500 μM DMSO stock simultaneously for a final test concentration of 5 μM. The plates were mixed at 600 rpm for 10 seconds on a plate shaker (IKA MTS 2/4 Digital Microtiter Shaker, VWR). Aliquots of 100 μL from each well of whole blood were transferred to three separate 96-deep well plates labeled 0, 60, or 240 minutes. At the end of each designated time point, the red blood cells were lysed with 100 μL of water, mixed at 600 rpm for one minute, and stopped with 800 μL of acetonitrile containing IS (0.625 μM diazepam). The plates were mixed on the plate shaker at 600 rpm for one minute and spun in a centrifuge at 2095×g for 7 minutes at room temperature using an Allegra benchtop centrifuge (Beckman Coulter, Fullerton, Calif.). Supernatant (100 μL) was transferred to a shallow 96-well plate (Costar) using a liquid sample handling system (Apricot, Perkin-Elmer, Boston, Mass.). The addition of 100 μL of water was added to each sample of supernatant for a final volume of 200 μL. The plates were sealed and the contents of each well were analyzed by LC-MS/MS.
Analytical quantitation: The LC-MS/MS system was comprised of an HTS-PAL autosampler (Leap Technologies, Carrboro, N.C.), an HP1200 HPLC (Agilent, Palo Alto, Calif.), and an API4000 triple quadrupole mass spectrometer (PE Sciex, a division of Applied Biosystems, Foster City, Calif.). […] The total run time, including re-equilibration, for a single injection was 2 minutes. Mass spectrometric detection of the analytes was accomplished using the ESI ionization mode. Ion current was optimized during infusion of a stock solution of propantheline, esmolol, or the representative test compound. Analyte responses, including the IS were measured by multiple reaction monitoring (MRM) of transitions unique to each compound.
Calculations: Data were acquired and peak areas were calculated for test compounds and the internal standard using Analyst 1.6.2 software (Sciex). The mean peak area ratios were calculated by averaging the peak area ratios (n=3) of each test compound and the IS for each sample.
Peak area tables were exported to BioAssay Enterprise (CambridgeSoft, Cambridge, Mass.), where the average analyte-to-internal standard peak area ratios were used to calculate percent remaining (% REM) and half-life (t1/2). Percent remaining (f) was calculated by determining the ratio of the peak area ratio at each time point to the peak area ratio of the time-zero samples. […]

KRas G12C [2] = molecular target: KRas G12C (Homo sapiens, UniProt P01116, C118S/C51S/C80L/G12C); assay: KRas G12C Modification Assay (LCMS detection of covalent adduct); type: binding; conditions: normalized percent of control; 5 μM concentration for 3 hours
Outline: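 Intact protein analysed by LC/MS with deconvolution; unmodified protein signal normalized to no-compound control and reported as percent of control (POC).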

KRas G12C [3] = molecular target: KRas G12C (Homo sapiens, UniProt P01116, G12C); assay: Cellular inhibition of KRas G12C measured by Phospho-ERK in NCI-H358 cells; type: cell-based; conditions: pERK(Thr202/Tyr204) normalized with GAPDH, NCI-H358 cells, 3 hours; read-out: IC50
Outline: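 NCI-H358 cells treated 3 h with compound (0.5% DMSO final), then fixed and methanol-permeabilised. In-cell immunofluorescence measured pERK(Thr202/Tyr204) normalised to GAPDH as percent of DMSO control. IC50 from a 4-parameter dose-response fit.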

half-life at 5 µM [1]	POC (KRas G12C [2])	IC50 (KRas G12C [3])	SMILES
3.33 to 16.7 h	–	–	C=CC(=O)N1CCN(c2nc(OC[C@@H]3CCCN3C)nc3c2CCN(c2cccc4cccc(Cl)c24)C3)C[C@@H]1CC#N [Example 331, 2-[(2S)-4-[7-(8-chloro-1-naphthyl)-2-[[(2S)-1-methylpyrrolidin-2-yl]methoxy]-6,8-dihydro-5H-pyrido[3,4-d]pyrimidin-4-yl]-1-prop-2-enoyl-piperazin-2-yl]acetonitrile]
> 33.3 h	–	–	C=C(F)C(=O)N1CCN(c2nc(OC[C@@H]3CCCN3C)nc3c2CCN(c2cccc4cccc(Cl)c24)C3)C[C@@H]1CC#N [Example 478, 2-[(2S)-4-[7-(8-chloro-1-naphthyl)-2-[[(2S)-1-methylpyrrolidin-2-yl]methoxy]-6,8-dihydro-5H-pyrido[3,4-d]pyrimidin-4-yl]-1-(2-fluoroprop-2-enoyl)piperazin-2-yl]acetonitrile]
–	C (“C”>50% POC)	0.1 to 1000 nM	C=C(F)C(=O)N1CCN(c2nc(OC[C@@H]3CCCN3C)nc3c2CCN(c2cccc4cccc(C(F)(F)F)c24)C3)C[C@@H]1CC#N [Example 589, 2-((S)-1-(2-Fluoroacryloyl)-4-(2-(((S)-1-methylpyrrolidin-2-yl)methoxy)-7-(8-(trifluoromethyl)naphthalen-1-yl)-5,6,7,8-tetrahydropyrido[3,4-d]pyrimidin-4-yl)piperazin-2-yl)acetonitrile]
–	B (“B”>25% POC-≤50% POC)	> 1000 nM	C=C(F)C(=O)N1CCN(c2nc(OC[C@@H]3CCCN3C)nc3c2CCN(c2cccc4cccc(C5CC5)c24)C3)C[C@@H]1CC#N [Example 590, 2-((S)-4-(7-(8-Cyclopropylnaphthalen-1-yl)-2-(((S)-1-methylpyrrolidin-2-yl)methoxy)-5,6,7,8-tetrahydropyrido[3,4-d]pyrimidin-4-yl)-1-(2-fluoroacryloyl)piperazin-2-yl)acetonitrile]
–	C (“C”>50% POC)	> 1000 nM	C=C(F)C(=O)N1CCN(c2nc(OC[C@@H]3CCCN3C)nc3c2CCN(c2cccc4ccnc(C)c24)C3)C[C@@H]1CC#N [Example 592]
–	C (“C”>50% POC)	0.1 to 1000 nM	C=C(F)C(=O)N1CCN(c2nc(OC[C@@H]3CCCN3C)nc3c2CCN(c2cccc4ccnc(Cl)c24)C3)C[C@@H]1CC#N [Example 595, 2-((S)-4-(7-(1-chloroisoquinolin-8-yl)-2-(((S)-1-methylpyrrolidin-2-yl)methoxy)-5,6,7,8-tetrahydropyrido[3,4-d]pyrimidin-4-yl)-1-(2-fluoroacryloyl)piperazin-2-yl)acetonitrile]

More lines, now with the values behind:

SMILES	half-life at 5 µM [1]	POC (KRas G12C [2])	IC50 (KRas G12C [3])
Cc1cccc2cccc(N3CCc4c(nc(OC[C@@H]5CCCN5C)nc4N4CCN(C(=O)/C=C/CN5CC(F)C5)[C@@H](CC#N)C4)C3)c12 [Example 515, 2-[(2S)-1-[(E)-4-(3-fluoroazetidin-1-yl)but-2-enoyl]-4-[7-(8-methyl-1-naphthyl)-2-[[(2S)-1-methylpyrrolidin-2-yl]methoxy]-6,8-dihydro-5H-pyrido[3,4-d]pyrimidin-4-yl]piperazin-2-yl]acetonitrile]	> 33.3 h	–	–
C=C(F)C(=O)N1CCN(c2nc(OC[C@@H]3CCCN3C)nc3c2CCN(c2cccc4cccc(Br)c24)C3)C[C@@H]1CC#N [Example 588, 2-((S)-4-(7-(8-Bromonaphthalen-1-yl)-2-(((S)-1-methylpyrrolidin-2-yl)methoxy)-5,6,7,8-tetrahydropyrido[3,4-d]pyrimidin-4-yl)-1-(2-fluoroacryloyl)piperazin-2-yl)acetonitrile]	–	C (“C”>50% POC)	0.1 to 1000 nM
C=C(F)C(=O)N1CCN(c2nc(OC[C@@H]3CCCN3C)nc3c2CCN(c2cccc4cccc(C(C)C)c24)C3)C[C@@H]1CC#N [Example 591]	–	B (“B”>25% POC-≤50% POC)	> 1000 nM
C=C(F)C(=O)N1CCN(c2nc(OC[C@@H]3CCCN3C)nc3c2CCN(c2cncc4cccc(Cl)c24)C3)C[C@@H]1CC#N [Example 593, 2-((S)-4-(7-(5-Chloroisoquinolin-4-yl)-2-(((S)-1-methylpyrrolidin-2-yl)methoxy)-5,6,7,8-tetrahydropyrido[3,4-d]pyrimidin-4-yl)-1-(2-fluoroacryloyl)piperazin-2-yl)acetonitrile]	–	C (“C”>50% POC)	0.1 to 1000 nM
C=C(F)C(=O)N1CCN(c2nc(OC[C@@H]3CCCN3C)nc3c2CCN(c2nccc4cccc(Br)c24)C3)C[C@@H]1CC#N [Example 594, 2-((S)-4-(7-(8-Bromoisoquinolin-1-yl)-2-(((S)-1-methylpyrrolidin-2-yl)methoxy)-5,6,7,8-tetrahydropyrido[3,4-d]pyrimidin-4-yl)-1-(2-fluoroacryloyl)piperazin-2-yl)acetonitrile]	–	A (“A”≤25% POC)	> 1000 nM
C=C(F)C(=O)N1CCN(c2nc(OC[C@@H]3CCCN3Cc3ccccc3)nc3c2CCN(c2cccc4cccc(C)c24)C3)C[C@@H]1CC#N [Example 596, 2-((S)-4-(2-(((S)-1-Benzylpyrrolidin-2-yl)methoxy)-7-(8-methylnaphthalen-1-yl)-5,6,7,8-tetrahydropyrido[3,4-d]pyrimidin-4-yl)-1-(2-fluoroacryloyl)piperazin-2-yl)acetonitrile]	–	C (“C”>50% POC)	0.1 to 1000 nM
C=C(F)C(=O)N1CCN(c2nc(OC[C@@H]3CCCN3CCF)nc3c2CCN(c2cccc4cccc(Cl)c24)C3)C[C@@H]1CC#N [Example 598, 2-((S)-4-(7-(8-Chloronaphthalen-1-yl)-2-(((S)-1-(2-fluoroethyl)pyrrolidin-2-yl)methoxy)-5,6,7,8-tetrahydropyrido[3,4-d]pyrimidin-4-yl)-1-(2-fluoroacryloyl)piperazin-2-yl)acetonitrile]	–	C (“C”>50% POC)	0.1 to 1000 nM
C=C(F)C(=O)N1CCN(c2nc(SC[C@@H]3CCCN3C)nc3c2CCN(c2cccc4cccc(C)c24)C3)C[C@@H]1CC#N [Example 599, 2-((S)-1-(2-Fluoroacryloyl)-4-(7-(8-methylnaphthalen-1-yl)-2-((((S)-1-methylpyrrolidin-2-yl)methyl)thio)-5,6,7,8-tetrahydropyrido [3,4-d]pyrimidin-4-yl)piperazin-2-yl)acetonitrile]	–	C (“C”>50% POC)	> 1000 nM
C=C(F)C(=O)N1CCN(c2nc(OC[C@@H]3CCCN3C)nc3c2CCN(c2cncc(Cl)c2C(F)(F)F)C3)C[C@@H]1CC#N [Example 600, 2-((S)-4-(7-(5-Chloro-4-(trifluoromethyl)pyridin-3-yl)-2-(((S)-1-methylpyrrolidin-2-yl)methoxy)-5,6,7,8-tetrahydropyrido[3,4-d]pyrimidin-4-yl)-1-(2-fluoroacryloyl)piperazin-2-yl)acetonitrile]	–	C (“C”>50% POC)	0.1 to 1000 nM
